Read-outs that look alike come from different tables or passages of the source.
How the values were obtained:
human CYP2D6 = human CYP2D6 (Homo sapiens, UniProt P10635); test: biochemical
human CYP2C19 [1] = target: T1, human CYP2C19 (Homo sapiens, UniProt P33261); test: biochemical
human CYP1A2 [2] = target: T2, human CYP1A2 (Homo sapiens, UniProt P05177); test: biochemical
T2 sequence (P05177 1-516): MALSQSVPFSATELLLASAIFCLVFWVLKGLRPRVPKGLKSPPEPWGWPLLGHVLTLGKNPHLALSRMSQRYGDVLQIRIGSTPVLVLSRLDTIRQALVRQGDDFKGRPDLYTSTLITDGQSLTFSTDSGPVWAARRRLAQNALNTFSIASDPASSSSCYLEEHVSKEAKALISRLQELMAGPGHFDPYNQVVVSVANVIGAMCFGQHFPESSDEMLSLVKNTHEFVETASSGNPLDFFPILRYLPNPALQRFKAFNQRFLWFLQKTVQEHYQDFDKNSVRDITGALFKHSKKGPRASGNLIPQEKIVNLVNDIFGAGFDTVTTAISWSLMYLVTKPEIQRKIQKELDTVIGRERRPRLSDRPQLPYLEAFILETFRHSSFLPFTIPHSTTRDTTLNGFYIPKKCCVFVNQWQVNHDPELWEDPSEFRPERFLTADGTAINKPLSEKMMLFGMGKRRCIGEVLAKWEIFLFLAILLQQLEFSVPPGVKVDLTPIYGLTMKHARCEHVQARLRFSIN

CYP3A4 = CYP3A4 (Homo sapiens, UniProt P08684)
human CYP2C9 = human CYP2C9 (Homo sapiens, UniProt P11712); test: biochemical
human CYP2C19 [3] = target: T1, human CYP2C19
human CYP1A2 [4] = target: T2, human CYP1A2
[5] = target: Photinus pyralis (firefly) luciferase (Photinus pyralis, UniProt P08659); test: biochemical; type: biochemical
[6] = CYP2D6 AC50 (half-maximal activity concentration)
[7] = CYP2C19 AC50 (half-maximal activity concentration)
[8] = CYP1A2 AC50 (half-maximal activity concentration)
[9] = CYP2C9 AC50 (half-maximal activity concentration)

T1 sequence (P33261 whole entry): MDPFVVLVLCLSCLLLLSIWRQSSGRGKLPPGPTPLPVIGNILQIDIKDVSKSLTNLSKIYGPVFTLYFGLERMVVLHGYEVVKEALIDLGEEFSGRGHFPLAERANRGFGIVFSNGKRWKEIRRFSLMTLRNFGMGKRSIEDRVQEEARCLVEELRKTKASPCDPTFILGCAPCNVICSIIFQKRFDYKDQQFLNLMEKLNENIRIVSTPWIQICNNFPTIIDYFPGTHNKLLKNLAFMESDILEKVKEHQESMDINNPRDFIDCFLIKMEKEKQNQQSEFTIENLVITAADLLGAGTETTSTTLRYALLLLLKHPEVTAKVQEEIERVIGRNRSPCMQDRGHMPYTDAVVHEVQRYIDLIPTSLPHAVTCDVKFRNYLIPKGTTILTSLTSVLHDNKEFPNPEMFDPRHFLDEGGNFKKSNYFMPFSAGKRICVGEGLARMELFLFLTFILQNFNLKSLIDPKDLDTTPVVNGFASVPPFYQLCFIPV
Sequence of human CYP2C9 (P11712 whole entry): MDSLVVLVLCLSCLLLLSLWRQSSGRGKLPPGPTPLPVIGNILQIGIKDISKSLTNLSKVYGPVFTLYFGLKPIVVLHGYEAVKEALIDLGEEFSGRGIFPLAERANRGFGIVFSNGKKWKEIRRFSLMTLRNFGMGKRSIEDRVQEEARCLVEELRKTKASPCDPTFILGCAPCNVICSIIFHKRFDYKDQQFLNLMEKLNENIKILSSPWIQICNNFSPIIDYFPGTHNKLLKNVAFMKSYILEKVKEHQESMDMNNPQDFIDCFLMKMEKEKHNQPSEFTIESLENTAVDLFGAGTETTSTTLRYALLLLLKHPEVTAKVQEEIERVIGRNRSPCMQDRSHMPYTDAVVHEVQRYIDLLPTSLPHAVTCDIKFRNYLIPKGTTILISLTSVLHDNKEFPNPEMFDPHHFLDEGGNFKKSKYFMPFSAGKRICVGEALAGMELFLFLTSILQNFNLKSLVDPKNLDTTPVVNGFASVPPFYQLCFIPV
Sequence of human CYP2D6 (P10635 whole entry): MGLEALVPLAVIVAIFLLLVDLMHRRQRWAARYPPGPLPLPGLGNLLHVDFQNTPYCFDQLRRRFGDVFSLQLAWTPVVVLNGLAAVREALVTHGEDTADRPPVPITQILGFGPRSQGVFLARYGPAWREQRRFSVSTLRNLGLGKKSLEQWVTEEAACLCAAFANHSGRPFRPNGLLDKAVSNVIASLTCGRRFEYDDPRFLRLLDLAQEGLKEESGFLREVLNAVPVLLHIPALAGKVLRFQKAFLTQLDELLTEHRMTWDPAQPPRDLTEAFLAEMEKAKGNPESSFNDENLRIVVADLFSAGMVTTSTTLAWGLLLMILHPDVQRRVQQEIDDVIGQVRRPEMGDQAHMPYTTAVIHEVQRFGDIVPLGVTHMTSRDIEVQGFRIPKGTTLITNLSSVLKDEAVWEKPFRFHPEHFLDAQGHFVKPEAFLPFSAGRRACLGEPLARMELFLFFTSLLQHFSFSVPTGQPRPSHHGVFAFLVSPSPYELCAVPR
Sequence of CYP3A4 (P08684 whole entry): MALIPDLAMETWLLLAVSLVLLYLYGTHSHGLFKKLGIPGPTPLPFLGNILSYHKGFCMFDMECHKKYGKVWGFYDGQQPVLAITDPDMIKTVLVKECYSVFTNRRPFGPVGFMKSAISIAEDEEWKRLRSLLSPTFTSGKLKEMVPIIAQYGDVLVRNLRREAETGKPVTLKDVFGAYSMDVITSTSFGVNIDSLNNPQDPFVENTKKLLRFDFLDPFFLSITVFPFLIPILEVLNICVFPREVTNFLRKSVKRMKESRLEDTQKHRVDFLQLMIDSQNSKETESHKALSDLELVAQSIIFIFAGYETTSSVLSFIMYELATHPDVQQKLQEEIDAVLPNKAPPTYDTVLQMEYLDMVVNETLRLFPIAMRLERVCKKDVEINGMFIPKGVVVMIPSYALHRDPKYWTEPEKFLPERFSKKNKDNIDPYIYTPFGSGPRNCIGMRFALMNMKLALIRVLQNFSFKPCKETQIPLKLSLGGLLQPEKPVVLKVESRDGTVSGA
Sequence of Photinus pyralis (firefly) luciferase (P08659 whole entry): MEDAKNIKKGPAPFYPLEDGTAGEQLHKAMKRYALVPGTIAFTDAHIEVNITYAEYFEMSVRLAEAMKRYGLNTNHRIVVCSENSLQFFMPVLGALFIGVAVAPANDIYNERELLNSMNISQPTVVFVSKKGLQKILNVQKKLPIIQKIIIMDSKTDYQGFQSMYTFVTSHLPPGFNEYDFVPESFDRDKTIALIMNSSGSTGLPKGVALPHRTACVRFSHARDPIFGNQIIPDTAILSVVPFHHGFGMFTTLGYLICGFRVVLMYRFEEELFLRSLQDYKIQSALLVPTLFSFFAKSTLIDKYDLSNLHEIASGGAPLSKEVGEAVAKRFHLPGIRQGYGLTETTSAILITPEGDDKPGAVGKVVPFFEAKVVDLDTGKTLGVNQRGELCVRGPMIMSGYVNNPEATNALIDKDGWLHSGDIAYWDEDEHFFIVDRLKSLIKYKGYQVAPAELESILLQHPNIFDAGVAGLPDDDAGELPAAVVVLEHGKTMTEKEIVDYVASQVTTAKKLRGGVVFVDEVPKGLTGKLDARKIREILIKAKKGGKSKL

Structure (SMILES) | AC50 (human CYP2D6; [6]) [µM] | AC50 (human CYP2C19 [1]; [7]) [µM] | AC50 (human CYP1A2 [2]; [8]) [µM] | CYP3A4 AC50 (half-maximal activity concentration) (CYP3A4) | AC50 (human CYP2C9; [9]) [µM] | AC50 (human CYP2D6) [µM] | AC50 (human CYP2C9) [µM] | also measured
O=c1[nH]sc2ccccc12 [1,2-Benzisothiazolin-3-one] | 11.3 | 2.38 | 31.7 | Inconclusive inhibitor | 34.3 | – | – | –
Oc1cc(Cl)c(Cl)c(Cl)c1 [3,4,5-Trichlorophenol] | 29 | 19.5 | 26.1 | Inconclusive inhibitor | 11.1 | – | – | –
Oc1ccc(-c2ccc(O)cc2)cc1 [4,4'-Biphenyldiol] | – | – | – | Inconclusive inhibitor | – | 61.3 | 9.08 | AC50 (human CYP1A2 [2]): 32.1 µM; CYP2C19 AC50 (half-maximal activity concentration) (human CYP2C19 [3]): Inconclusive inhibitor
O=C(c1ccc(O)cc1)c1ccc(O)cc1 [4,4'-Dihydoxybenzophenone] | – | – | – | – | – | 63.5 ± 20.9 | 0.77 ± 0.4 | AC50 (human CYP2C19 [1]): 31.8 ± 10.5 µM; AC50 (human CYP1A2 [2]): 38.5 ± 2.51 µM; CYP3A4 AC50 (half-maximal activity concentration) (CYP3A4; mean ± standard deviation from three experiments, activity call in words where no AC50): Inconclusive inhibitor
Oc1ccc(Sc2ccc(O)cc2)cc1 [4,4'-Thiodiphenol] | – | – | – | Inconclusive inhibitor | – | 30.9 | 3.66 | CYP1A2 AC50 (half-maximal activity concentration) (human CYP1A2 [4]): Inconclusive inhibitor; AC50 (human CYP2C19 [1]): 36 µM
O=S(=O)(c1ccccc1)c1ccc(Cl)cc1 [4-Chlorophenyl phenyl sulfone] | – | – | – | Inactive | – | 66.7 | 5.88 | AC50 (human CYP2C19 [1]): 4.75 µM; AC50 (human CYP1A2 [2]): 43.2 µM
O=C(c1ccccc1)c1ccc(O)cc1 [4-Hydroxybenzophenone] | 36.1 | 31.7 | 29 | Inactive | 2.7 | – | – | –
CC(C)(C)c1ccc(O)c(O)c1 [4-tert-Butylcatechol] | 9.07 | 13.6 | 60 | Inactive | 73.7 | – | – | –
C=CC[C@]1(O)CC[C@H]2[C@@H]3CCC4=CC(=O)CCC4=C3C=C[C@@]21C [Altrenogest] | – | – | – | – | – | – | – | CYP1A2 IC50 (human CYP1A2 [4]): Inactive; IC50 (human CYP2D6): 46.9 ± 11.3 µM; IC50 (human CYP2C19 [1]): 8.15 ± 2.81 µM; Luciferase IC50 [5]: Inactive; IC50 (human CYP2C9): 14.8 ± 4.35 µM
CC(C)COCC(CN(Cc1ccccc1)c1ccccc1)N1CCCC1 (centres unmarked) [Bepridil] | – | – | – | – | – | – | – | CYP1A2 IC50 (human CYP1A2 [4]): Inactive; IC50 (human CYP2D6; CYP2D6 IC50): 0.06 µM; Luciferase IC50 [5]: Inactive
NS(=O)(=O)c1ccc(Cl)c(S(N)(=O)=O)c1 [Clofenamide] | 30.6 | – | – | Inactive | 19.8 | – | – | CYP1A2 AC50 (half-maximal activity concentration) (human CYP1A2 [4]): Inactive; CYP2C19 AC50 (half-maximal activity concentration) (human CYP2C19 [3]): Inactive
